According to ChEMBL document CHEMBL5463723, “Data for DCP probe BIBO3304” (2023):

What was measured:
[1] = target: 5-hydroxytryptamine receptor 1A (Homo sapiens) (UniProt P08908); experiment: 5-HT1A Eurofins-Cerep binding assay; parameters: ligand concentration 0.5 nM; details: Compound concentration 10.0 uM
[2] = target: Angiotensin-converting enzyme (Homo sapiens) (UniProt P12821); experiment: Activity against ACE(HU_AMTCH400) in the Eurofins Cerep SafetyScreen44 (BI) by Photometry (Cerep_3441); details: Compound concentration 10.0 uM
[3] = target: Alpha-2A adrenergic receptor (Homo sapiens) (UniProt P08913); experiment: Inhibitor of ALPHA2A/HU in the Eurofins Cerep SafetyScreen44 (BI) by Radioactive Assay (Cerep_13); details: Compound concentration 10.0 uM
[4] = target: L-type calcium channel (dihydropyridine site), Cav1.2 alpha-1C (Rattus norvegicus, UniProt P22002); experiment: Inhibitor of CA+/DHPSI/R in the Eurofins Cerep SafetyScreen44 (BI) by Radioactive Assay (Cerep_161); type: protein assay; parameters: scale not given: the % may be the effect or the level left; details: rat brain, probe [3H](+)PN200-110, compound concentration 10 uM, read-out: % Ctrl
[5] = target: D(1A) dopamine receptor (Homo sapiens) (UniProt P21728); experiment: D1 Eurofins-Cerep binding assay; parameters: ligand concentration 0.3 nM; details: Compound concentration 10.0 uM
[6] = target: D(2) dopamine receptor (Homo sapiens) (UniProt P14416); experiment: Agonist activity in the Eurofins Cerep SafetyScreen44 (BI) against D2SH_AGON by Scintillation counting (Cerep_1322); details: Compound concentration 10.0 uM
[7] = target: Histamine H2 receptor (Homo sapiens) (UniProt P25021); experiment: H2 Eurofins-Cerep binding assay; parameters: ligand concentration 0.075 nM; details: Compound concentration 10.0 uM
[8] = target: Muscarinic acetylcholine receptor M2 (Homo sapiens) (UniProt P08172); experiment: M2 Eurofins-Cerep binding assay; parameters: ligand concentration 2 nM; details: Compound concentration 10.0 uM
[9] = target: Glutamate NMDA receptor (Rattus norvegicus) (UniProt P35439+Q00959+Q00960+Q00961+Q62645+Q8VHN2+Q9R1M7); experiment: Inhibitor of NMDA/R in the Eurofins Cerep SafetyScreen44 (BI) by Radioactive Assay (Cerep_66); type: protein-complex assay; details: Compound concentration 10.0 uM
[10] = target: Neuropeptide Y receptor type 5 (Homo sapiens, UniProt Q15761); experiment: Radioligand binding assay (human NPY5R, HEK293); type: cell-based
[11] = target: Serotonin 1 (5-HT1) receptor (Rattus norvegicus) (UniProt P28564+P30940+P19327+P28565); experiment: Activity against 5HT1/R in the Eurofins Panlabs screen (BI) by Radioactive Assay; type: protein assay; details: Compound concentration 10.0 uM
[12] = target: Alpha-1D adrenergic receptor (Rattus norvegicus) (UniProt P23944); experiment: Activity against ALPHA1/R in the Eurofins Panlabs screen (BI) by Others; details: Compound concentration 10.0 uM
[13] = target: Adrenergic receptor alpha-2 (Rattus norvegicus) (UniProt P22086+P19328+P22909); experiment: Activity against ALPHA2/R in the Eurofins Panlabs screen (BI) by Others; type: protein assay; details: Compound concentration 10.0 uM
[14] = target: Alpha-2B adrenergic receptor (Rattus norvegicus) (UniProt P19328); experiment: Activity against ALPHA2B/R in the Eurofins Panlabs screen (BI); details: Compound concentration 10.0 uM
[15] = target: Type-1 angiotensin II receptor (Oryctolagus cuniculus) (UniProt P34976); experiment: Activity against ATII/RB in the Eurofins Panlabs screen (BI) by Radioactive Assay; details: Compound concentration 10.0 uM
Rattus norvegicus [16] = species on record: Rattus norvegicus; experiment: Activity against BETA/R in the Eurofins Panlabs screen (BI) by Radioactive Assay; details: Compound concentration 10.0 uM
Rattus norvegicus [17] = species on record: Rattus norvegicus; experiment: Inhibitor of CALCINEUPP2B in the Eurofins Panlabs screen (BI) by Radioactive Assay; details: Compound concentration 10.0 uM
[18] = target: Carbonic anhydrase 6 (Homo sapiens) (UniProt P23280); experiment: Inhibitor of CANHYDRASE in the Eurofins Panlabs screen (BI) by absorption of electromagnetic radiation; details: Compound concentration 10.0 uM
[19] = target: D(1A) dopamine receptor (Homo sapiens) (UniProt P21728); experiment: Activity against D1/HU in the Eurofins Panlabs screen (BI) by Radioactive Assay; details: Compound concentration 10.0 uM
[20] = target: Endothelin-1 receptor (Rattus norvegicus) (UniProt P26684); experiment: Activity against ETA/R in the Eurofins Panlabs screen (BI) by Radioactive Assay; details: Compound concentration 10.0 uM
[21] = target: Endothelin receptor type B (Rattus norvegicus) (UniProt P21451); experiment: Activity against ETB/R in the Eurofins Panlabs screen (BI) by Radioactive Assay; details: Compound concentration 10.0 uM
[22] = target: Galanin receptor type 1 (Rattus norvegicus) (UniProt Q62805); experiment: Activity against GALANIN/R in the Eurofins Panlabs screen (BI) by Radioactive Assay; details: Compound concentration 10.0 uM
[23] = target: Glucocorticoid receptor (Homo sapiens) (UniProt P04150); experiment: Activity against GCORTIC/H in the Eurofins Panlabs screen (BI) by Radioactive Assay; details: Compound concentration 10.0 uM
[24] = target: Metabotropic glutamate receptor (Rattus norvegicus) (UniProt P31424+P70579+P31423+P31421+P31422+P35349+P35400+P23385); experiment: Activity against GLUTAMAT/R in the Eurofins Panlabs screen (BI) by Radioactive Assay; type: protein assay; details: Compound concentration 10.0 uM
[25] = target: 3-hydroxy-3-methylglutaryl-coenzyme A reductase (Rattus norvegicus) (UniProt P51639); experiment: Inhibitor of HMGCOARED in the Eurofins Panlabs screen (BI) by Radioactive Assay; details: Compound concentration 30.0 uM
[26] = target: Interleukin-1 receptor type 1 (Mus musculus) (UniProt P13504); experiment: Activity against IL-1ALPHA/M in the Eurofins Panlabs screen (BI) by Radioactive Assay; details: Compound concentration 10.0 uM
[27] = target: ATP-sensitive inward rectifier potassium channel 1 isoform X1 (Mesocricetus auratus) (UniProt A0A1U8CU73); experiment: Activity against K+/KATP/HA in the Eurofins Panlabs screen (BI) by Radioactive Assay; details: Compound concentration 10.0 uM
[28] = target: Potassium voltage-gated channel subfamily V member 1 (Rattus norvegicus) (UniProt P97557); experiment: Activity against K+/KV/R in the Eurofins Panlabs screen (BI) by Radioactive Assay; details: Compound concentration 10.0 uM
[29] = target: Glutamate receptor ionotropic, kainate 1 (Rattus norvegicus) (UniProt P22756); experiment: Activity against KAINATE/R in the Eurofins Panlabs screen (BI) by Radioactive Assay; details: Compound concentration 10.0 uM
[30] = target: Muscarinic acetylcholine receptor (Oryctolagus cuniculus) (UniProt A0A5F9DUN4); experiment: Activity against M4/RB in the Eurofins Panlabs screen (BI) by Radioactive Assay; details: Compound concentration 10.0 uM
[31] = target: Neprilysin (Homo sapiens) (UniProt P08473); experiment: Activity against NEUTRALENDOP in the Eurofins Panlabs screen (BI) by absorption of electromagnetic radiation; details: Compound concentration 10.0 uM
[32] = target: Glutamate receptor ionotropic, NMDA 1 (Rattus norvegicus) (UniProt P35439); experiment: Activity against NMDAGLSI/R in the Eurofins Panlabs screen (BI) by Radioactive Assay; details: Compound concentration 10.0 uM
[33] = target: Glutamate receptor ionotropic, NMDA 2A (Rattus norvegicus) (UniProt Q00959); experiment: Activity against NMDAPHSI/R in the Eurofins Panlabs screen (BI) by Radioactive Assay; details: Compound concentration 10.0 uM
[34] = target: Opioid receptor (Rattus norvegicus) (UniProt P33533+P34975+P33535); experiment: Activity against OPIAT/NS in the Eurofins Panlabs screen (BI) by Radioactive Assay; type: protein assay; details: Compound concentration 10.0 uM
[35] = target: Platelet-activating factor receptor (Oryctolagus cuniculus) (UniProt G1TEI7); experiment: Activity against PAF/RB in the Eurofins Panlabs screen (BI) by Radioactive Assay; details: Compound concentration 10.0 uM
[36] = target: Tumor necrosis factor (Homo sapiens) (UniProt P01375); experiment: Activity against TNFA/HU/HELA in the Eurofins Panlabs screen (BI) by Radioactive Assay; details: Compound concentration 10.0 uM
[37] = target: Neuropeptide Y receptor type 2 (Oryctolagus cuniculus) (UniProt G1TSD5); experiment: Activity against Y2/RB in the Eurofins Panlabs screen (BI) by Radioactive Assay; details: Compound concentration 10.0 uM

Chain of D(1A) dopamine receptor (Homo sapiens) (P21728 whole entry): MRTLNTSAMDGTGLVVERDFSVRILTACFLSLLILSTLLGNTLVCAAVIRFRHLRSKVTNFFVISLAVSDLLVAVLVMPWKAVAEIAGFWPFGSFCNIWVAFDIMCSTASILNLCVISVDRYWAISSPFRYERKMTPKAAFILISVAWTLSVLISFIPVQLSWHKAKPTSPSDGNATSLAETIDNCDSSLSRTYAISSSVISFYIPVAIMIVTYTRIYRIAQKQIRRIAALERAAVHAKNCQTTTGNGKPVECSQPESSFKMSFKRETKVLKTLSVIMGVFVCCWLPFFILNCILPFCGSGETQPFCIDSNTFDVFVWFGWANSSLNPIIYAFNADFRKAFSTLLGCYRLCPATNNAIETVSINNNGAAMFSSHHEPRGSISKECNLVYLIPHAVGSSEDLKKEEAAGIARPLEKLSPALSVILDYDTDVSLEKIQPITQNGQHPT
Chain of Platelet-activating factor receptor (Oryctolagus cuniculus) (G1TEI7 as listed by the source): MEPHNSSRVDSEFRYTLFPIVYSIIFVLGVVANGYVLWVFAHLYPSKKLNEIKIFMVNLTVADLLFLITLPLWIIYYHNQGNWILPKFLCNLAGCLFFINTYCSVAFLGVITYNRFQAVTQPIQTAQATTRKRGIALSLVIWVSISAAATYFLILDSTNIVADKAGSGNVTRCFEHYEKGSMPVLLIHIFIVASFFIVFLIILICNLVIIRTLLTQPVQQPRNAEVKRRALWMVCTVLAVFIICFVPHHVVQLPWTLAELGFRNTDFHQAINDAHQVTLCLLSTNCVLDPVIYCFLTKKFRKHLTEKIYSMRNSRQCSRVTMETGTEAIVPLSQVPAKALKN
Chain of Galanin receptor type 1 (Rattus norvegicus) (Q62805 whole entry): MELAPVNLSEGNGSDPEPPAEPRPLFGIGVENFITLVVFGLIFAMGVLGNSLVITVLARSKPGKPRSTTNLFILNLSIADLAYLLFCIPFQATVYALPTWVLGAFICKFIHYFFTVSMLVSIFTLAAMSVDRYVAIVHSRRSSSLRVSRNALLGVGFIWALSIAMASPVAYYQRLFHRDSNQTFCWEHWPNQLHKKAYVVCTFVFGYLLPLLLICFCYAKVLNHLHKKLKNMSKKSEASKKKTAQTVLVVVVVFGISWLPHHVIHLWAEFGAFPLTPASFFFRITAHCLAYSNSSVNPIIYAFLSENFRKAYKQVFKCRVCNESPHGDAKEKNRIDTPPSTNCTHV
Chain of Neuropeptide Y receptor type 5 (Q15761 whole entry): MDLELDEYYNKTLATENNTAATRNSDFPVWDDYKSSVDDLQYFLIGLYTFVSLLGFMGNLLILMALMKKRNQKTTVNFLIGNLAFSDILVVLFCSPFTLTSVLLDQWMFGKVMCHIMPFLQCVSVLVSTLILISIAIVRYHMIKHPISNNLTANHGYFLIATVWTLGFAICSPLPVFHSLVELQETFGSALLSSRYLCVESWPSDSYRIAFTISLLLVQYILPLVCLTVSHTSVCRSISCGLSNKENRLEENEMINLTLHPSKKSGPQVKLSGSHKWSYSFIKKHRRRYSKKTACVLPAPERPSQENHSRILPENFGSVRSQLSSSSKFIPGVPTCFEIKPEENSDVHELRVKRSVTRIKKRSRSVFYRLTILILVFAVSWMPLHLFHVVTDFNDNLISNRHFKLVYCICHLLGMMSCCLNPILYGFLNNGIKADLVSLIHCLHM
Chain of Endothelin receptor type B (Rattus norvegicus) (P21451 whole entry): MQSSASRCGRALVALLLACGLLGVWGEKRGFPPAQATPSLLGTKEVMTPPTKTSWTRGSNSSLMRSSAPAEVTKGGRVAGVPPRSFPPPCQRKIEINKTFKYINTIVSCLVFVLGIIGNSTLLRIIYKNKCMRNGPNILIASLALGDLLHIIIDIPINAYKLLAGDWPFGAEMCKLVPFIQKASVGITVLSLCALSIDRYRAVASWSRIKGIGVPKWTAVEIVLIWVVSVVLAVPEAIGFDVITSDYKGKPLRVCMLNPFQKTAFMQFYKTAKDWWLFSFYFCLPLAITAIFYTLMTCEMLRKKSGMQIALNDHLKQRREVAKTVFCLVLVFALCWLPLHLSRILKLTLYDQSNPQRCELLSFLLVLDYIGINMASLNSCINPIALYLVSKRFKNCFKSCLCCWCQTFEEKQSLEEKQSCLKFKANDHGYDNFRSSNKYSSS
Chain of Alpha-2B adrenergic receptor (Rattus norvegicus) (P19328 whole entry): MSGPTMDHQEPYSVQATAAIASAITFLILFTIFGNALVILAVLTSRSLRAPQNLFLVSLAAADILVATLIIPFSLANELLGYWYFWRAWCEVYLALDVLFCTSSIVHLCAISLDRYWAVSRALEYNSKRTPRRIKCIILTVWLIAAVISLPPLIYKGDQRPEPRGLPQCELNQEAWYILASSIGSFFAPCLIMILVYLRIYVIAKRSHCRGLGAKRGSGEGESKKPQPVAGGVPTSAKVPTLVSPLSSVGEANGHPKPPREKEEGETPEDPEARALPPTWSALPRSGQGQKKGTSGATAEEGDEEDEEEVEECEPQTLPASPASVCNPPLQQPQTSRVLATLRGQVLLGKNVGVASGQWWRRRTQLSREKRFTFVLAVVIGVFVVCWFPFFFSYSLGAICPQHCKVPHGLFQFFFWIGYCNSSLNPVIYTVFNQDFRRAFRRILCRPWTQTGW
Chain of 5-hydroxytryptamine receptor 1A (Homo sapiens) (P08908 whole entry): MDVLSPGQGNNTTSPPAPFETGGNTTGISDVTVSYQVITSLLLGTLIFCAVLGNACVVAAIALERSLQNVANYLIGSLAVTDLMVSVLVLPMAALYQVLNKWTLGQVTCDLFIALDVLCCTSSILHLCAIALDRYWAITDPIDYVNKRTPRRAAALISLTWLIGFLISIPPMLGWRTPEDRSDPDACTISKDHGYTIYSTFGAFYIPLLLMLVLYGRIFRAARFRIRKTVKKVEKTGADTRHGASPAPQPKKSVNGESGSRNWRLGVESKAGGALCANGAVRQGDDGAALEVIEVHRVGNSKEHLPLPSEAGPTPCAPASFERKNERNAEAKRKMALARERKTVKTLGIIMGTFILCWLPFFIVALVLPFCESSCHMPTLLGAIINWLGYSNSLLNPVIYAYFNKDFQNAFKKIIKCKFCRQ
Chain of Neprilysin (Homo sapiens) (P08473 whole entry): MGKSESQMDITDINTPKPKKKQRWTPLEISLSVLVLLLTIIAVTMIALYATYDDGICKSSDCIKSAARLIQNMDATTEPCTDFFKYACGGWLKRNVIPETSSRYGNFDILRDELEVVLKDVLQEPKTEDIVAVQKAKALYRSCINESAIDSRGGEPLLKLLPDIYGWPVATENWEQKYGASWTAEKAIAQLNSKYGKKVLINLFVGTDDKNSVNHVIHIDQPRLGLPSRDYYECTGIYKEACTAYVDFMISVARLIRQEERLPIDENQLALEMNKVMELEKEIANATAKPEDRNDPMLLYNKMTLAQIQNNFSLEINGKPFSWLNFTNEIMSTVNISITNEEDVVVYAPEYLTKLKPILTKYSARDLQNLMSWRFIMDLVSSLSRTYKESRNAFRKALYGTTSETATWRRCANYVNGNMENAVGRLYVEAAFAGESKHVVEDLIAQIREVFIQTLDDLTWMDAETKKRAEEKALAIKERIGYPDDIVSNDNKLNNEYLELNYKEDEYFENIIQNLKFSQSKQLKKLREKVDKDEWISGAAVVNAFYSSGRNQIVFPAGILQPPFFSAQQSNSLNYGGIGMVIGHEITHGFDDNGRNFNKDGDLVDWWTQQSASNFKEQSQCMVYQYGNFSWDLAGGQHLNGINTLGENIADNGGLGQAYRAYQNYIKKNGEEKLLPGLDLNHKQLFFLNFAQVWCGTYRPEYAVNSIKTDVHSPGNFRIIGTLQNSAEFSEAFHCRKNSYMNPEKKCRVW
Chain of Alpha-1D adrenergic receptor (Rattus norvegicus) (P23944 whole entry): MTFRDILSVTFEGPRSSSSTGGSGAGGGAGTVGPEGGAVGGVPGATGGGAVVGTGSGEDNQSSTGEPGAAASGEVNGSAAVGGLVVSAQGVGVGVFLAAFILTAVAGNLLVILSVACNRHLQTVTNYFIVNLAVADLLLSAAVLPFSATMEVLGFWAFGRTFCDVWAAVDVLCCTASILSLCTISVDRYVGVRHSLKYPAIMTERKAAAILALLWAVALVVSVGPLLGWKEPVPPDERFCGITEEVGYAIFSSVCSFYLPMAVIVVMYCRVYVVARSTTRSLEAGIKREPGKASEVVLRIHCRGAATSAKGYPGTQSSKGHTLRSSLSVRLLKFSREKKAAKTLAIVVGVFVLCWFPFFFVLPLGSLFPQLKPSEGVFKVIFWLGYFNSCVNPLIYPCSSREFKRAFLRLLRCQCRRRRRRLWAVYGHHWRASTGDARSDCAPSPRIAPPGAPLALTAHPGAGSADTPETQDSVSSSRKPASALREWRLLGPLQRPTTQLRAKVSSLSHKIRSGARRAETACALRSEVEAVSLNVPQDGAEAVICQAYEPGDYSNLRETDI
Chain of D(2) dopamine receptor (Homo sapiens) (P14416 whole entry): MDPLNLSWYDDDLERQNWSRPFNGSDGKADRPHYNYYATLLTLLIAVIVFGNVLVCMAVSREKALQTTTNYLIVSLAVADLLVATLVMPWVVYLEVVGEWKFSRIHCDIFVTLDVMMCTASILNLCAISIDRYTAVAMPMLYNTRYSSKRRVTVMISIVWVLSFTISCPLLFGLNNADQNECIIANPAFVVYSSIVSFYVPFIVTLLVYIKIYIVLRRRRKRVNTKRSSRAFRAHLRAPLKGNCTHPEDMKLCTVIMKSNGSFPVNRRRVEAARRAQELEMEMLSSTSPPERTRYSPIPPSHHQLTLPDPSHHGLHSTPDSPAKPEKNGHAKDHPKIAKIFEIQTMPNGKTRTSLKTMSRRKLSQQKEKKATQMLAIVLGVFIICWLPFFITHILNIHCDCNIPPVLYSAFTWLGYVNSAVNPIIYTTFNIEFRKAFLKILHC
Chain of Carbonic anhydrase 6 (Homo sapiens) (P23280 whole entry): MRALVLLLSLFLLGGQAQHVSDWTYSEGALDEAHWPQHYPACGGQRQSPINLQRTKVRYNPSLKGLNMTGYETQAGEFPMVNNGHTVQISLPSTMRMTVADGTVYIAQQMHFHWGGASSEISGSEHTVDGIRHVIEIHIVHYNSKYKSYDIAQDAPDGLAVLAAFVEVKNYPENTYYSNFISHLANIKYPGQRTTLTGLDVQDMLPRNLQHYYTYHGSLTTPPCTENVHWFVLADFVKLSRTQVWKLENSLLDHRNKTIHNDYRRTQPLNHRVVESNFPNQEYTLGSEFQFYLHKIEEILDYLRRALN

residual activity [1]: 56% | residual activity [5]: 97% | residual activity [7]: 117% | residual activity [8]: 90% | IC50 [10]: > 10 µM (not active) | residual activity [11]: 90% | residual activity [12]: 91% | residual activity [13]: 96% | residual activity [14]: 91% | residual activity [15]: 99% | residual activity (Rattus norvegicus [16]): 106% | residual activity (Rattus norvegicus [17]): 90% | residual activity [18]: 96% | residual activity [19]: 95% | residual activity [20]: 88% | residual activity [21]: 98% | residual activity [22]: 91% | residual activity [23]: 86% | residual activity [24]: 95% | residual activity [25]: 98% | residual activity [26]: 88% | residual activity [27]: 76% | residual activity [28]: 89% | residual activity [29]: 103% | residual activity [30]: 110% | residual activity [31]: 102% | residual activity [32]: 87% | residual activity [33]: 77% | residual activity [34]: 114% | residual activity [35]: 91% | residual activity [37]: 62%
SMILES: N=C(N)NCCC[C@@H](NC(=O)C(c1ccccc1)c1ccccc1)C(=O)NCc1ccc(CNC(N)=O)cc1
residual activity [2]: 103% | residual activity [3]: 93% | activity at 10 µM [4]: 70% (not active) | residual activity [6]: 40% | residual activity [9]: 109% | residual activity [36]: 114%
